Measurements: patent US8765727B2, “Macrocyclic compounds and their use as kinase inhibitors” (Incyte Corporation, priority 2009, dated 2014)
Counter-ions that a name gives are not always drawn. Like-named read-outs stand apart in the source and are kept apart here.

Columns and labels:
Type in all cases: biochemical
[1] = biological target: Recombinant Human Anaplastic Lymphoma Kinase (Homo sapiens (Human), UniProt Q9UM73); assay: ALK HTRF kinase assay; conditions: 90 μM ATP, 0.25 nM enzyme, 2 hours at 25° C.
Chain of Recombinant Human Anaplastic Lymphoma Kinase (Q9UM73 19-1620): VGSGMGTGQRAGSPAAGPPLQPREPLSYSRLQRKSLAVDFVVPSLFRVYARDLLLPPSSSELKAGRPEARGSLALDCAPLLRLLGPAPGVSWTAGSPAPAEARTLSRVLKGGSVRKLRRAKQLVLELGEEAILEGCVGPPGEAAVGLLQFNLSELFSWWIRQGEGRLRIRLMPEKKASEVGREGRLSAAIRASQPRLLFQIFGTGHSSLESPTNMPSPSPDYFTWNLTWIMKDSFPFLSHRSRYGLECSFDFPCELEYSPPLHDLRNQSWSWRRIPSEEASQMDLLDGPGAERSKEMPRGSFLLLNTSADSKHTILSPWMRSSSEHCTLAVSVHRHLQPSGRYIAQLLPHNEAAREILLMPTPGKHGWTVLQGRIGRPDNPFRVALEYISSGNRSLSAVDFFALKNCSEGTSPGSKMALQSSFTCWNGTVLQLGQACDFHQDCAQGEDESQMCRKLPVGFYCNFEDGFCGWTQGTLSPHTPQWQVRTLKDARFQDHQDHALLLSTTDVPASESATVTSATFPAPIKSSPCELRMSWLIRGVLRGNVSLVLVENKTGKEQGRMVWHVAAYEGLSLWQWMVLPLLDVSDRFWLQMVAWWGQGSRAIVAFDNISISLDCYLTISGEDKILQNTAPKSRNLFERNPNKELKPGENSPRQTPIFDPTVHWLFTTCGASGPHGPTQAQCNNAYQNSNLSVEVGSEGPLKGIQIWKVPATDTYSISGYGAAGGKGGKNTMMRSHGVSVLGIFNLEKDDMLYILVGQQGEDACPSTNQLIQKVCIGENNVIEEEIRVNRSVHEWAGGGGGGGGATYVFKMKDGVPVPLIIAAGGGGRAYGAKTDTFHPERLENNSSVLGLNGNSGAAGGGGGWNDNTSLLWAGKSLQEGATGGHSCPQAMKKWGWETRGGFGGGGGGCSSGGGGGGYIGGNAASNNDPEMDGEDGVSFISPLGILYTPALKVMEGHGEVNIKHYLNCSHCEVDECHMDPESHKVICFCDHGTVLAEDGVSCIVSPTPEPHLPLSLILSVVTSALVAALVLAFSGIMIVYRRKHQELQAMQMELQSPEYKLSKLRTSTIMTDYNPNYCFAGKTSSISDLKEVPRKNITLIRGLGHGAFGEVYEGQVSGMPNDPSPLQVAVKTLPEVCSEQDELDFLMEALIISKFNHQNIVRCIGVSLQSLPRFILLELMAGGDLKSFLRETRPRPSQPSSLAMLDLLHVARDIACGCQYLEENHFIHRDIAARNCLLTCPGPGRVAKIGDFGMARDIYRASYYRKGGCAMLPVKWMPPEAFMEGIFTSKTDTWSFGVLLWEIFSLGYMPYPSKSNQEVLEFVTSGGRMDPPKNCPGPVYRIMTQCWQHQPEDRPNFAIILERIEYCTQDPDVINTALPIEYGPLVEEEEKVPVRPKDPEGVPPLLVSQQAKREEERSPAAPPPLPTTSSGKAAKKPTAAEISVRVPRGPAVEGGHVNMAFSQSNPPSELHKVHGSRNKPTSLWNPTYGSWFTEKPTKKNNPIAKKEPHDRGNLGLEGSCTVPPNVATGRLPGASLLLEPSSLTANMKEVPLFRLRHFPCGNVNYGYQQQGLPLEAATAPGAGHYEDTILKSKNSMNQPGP
Experimental: Materials: Recombinant Human Anaplastic Lymphoma Kinase was purchased from Invitrogen, Carlsbad, Calif. Peptide substrate (Biotin-[…]-amide) was custom synthesized at EZBiolab, Westfield, Ind. Streptavidin conjugated SureLight-Allophycocyania and LANCE Eu-W1024 labeled anti-phosphotyrosine antibody were from Perkin-Elmer, Boston, Mass. Microplates were from Corning Inc., Acton, Mass. All other reagents were from Sigma, St. Louis, Mo.
HTRF kinase assay: 40 μL reactions were run in black 384 well polystyrene plates in assay buffer (50 mM Tris, pH 7.8, 100 mM NaCI, 0.1 mg/mL BSA, 5 mM DTT), containing 0.5 μM Biotinylated peptide substrate, 10 mM MgCl2, 90 μM ATP, and 0.25 nM enzyme for 2 hours at 25° C. Reactions were stopped by addition of 20 μL assay buffer supplemented with an additional 50 mM NaCl, 0.4 mg/mL BSA, 45 mM EDTA, 4.5 nM LANCE Eu-W1024 labeled anti-phosphotyrosine antibody and 200 nM streptavidin conjugated SureLight-allophycocyanin. Plates were read in Fusion α-FP instrument (Perkin-Elmer). The concentrations needed to reach 50% inhibition, the IC50 value, were determined by fitting the assay signal to the following equation using Graphpad Prizm. Signal=Bottom+(Top−Bottom)/(1+10^((Log(IC50)−Log [I])*Hill Slope) Bottom and Top refer to the post and pre-transition baselines, respectively.

[2] = biological target: TYK2 (Homo sapiens (Human), UniProt P29597); assay: TYK2 assay (as described by Thompson et al.)
Chain of TYK2 (P29597 whole entry, species assumed): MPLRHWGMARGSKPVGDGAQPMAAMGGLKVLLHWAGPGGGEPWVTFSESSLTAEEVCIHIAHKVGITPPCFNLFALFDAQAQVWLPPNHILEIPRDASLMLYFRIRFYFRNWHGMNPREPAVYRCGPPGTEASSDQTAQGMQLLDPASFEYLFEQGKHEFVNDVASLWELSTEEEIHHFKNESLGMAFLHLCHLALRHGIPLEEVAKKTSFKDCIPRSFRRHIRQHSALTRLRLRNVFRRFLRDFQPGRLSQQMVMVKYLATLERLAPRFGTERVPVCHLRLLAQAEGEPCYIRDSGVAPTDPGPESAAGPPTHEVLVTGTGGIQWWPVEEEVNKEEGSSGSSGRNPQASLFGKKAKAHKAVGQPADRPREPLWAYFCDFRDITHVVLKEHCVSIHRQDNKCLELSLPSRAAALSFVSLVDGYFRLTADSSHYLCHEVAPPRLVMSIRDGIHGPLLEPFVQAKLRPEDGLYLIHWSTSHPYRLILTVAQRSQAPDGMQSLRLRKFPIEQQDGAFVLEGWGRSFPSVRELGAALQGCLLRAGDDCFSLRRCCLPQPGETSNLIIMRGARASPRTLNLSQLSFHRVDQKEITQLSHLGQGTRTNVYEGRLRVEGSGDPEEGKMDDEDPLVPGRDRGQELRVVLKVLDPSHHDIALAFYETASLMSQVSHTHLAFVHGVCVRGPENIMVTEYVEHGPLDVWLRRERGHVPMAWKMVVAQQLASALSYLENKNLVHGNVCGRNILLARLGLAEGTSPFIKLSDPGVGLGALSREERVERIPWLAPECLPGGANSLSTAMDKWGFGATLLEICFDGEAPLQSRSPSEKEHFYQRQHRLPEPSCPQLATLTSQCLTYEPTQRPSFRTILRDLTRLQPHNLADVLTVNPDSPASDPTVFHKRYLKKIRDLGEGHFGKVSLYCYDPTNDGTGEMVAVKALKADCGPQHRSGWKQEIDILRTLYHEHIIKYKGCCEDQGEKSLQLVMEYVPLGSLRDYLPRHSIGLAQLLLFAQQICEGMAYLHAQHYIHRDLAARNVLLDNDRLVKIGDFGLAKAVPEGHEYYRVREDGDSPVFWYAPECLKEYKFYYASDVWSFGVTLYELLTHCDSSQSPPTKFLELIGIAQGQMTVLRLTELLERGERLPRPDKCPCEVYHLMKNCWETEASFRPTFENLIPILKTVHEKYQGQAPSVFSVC
Description: The invention will be described in greater detail by way of specific examples. The following examples are offered for illustrative purposes, and are not intended to limit the invention in any manner. Those of skill in the art will readily recognize a variety of non-critical parameters which can be changed or modified to yield essentially the same results. In some instances where the compounds of the examples were isolated by preparative HPLC in the presence of trifluoroacetic acid (TFA) or other acid, the compound may have been obtained as the corresponding salt. […] Certain compounds described in Tables 1 and in the Example section were tested for inhibitory activity of JAK/ALK targets according to assays such as those described herein or those known in the art [e.g., ALK assays described in WO 04/079326; and TYK2 assays described by James E. Thompson et. al, “Photochemical preparation of a pyridone containing tetracycle: A JAK protein kinase inhibitor,” Bioorganic & Medicinal Chemistry Letters, Volume 12, Issue 8, 22 Apr. 2002, Pages 1219-1223]. […] Some exemplary data of the compounds of the invention are shown in Table 1 in the experimental section.

[3] = biological target: human JAK3 (a.a. 781-1124) catalytic domain (Homo sapiens (Human), UniProt P52333); assay: In vitro JAK kinase assay (HTRF), JAK3; conditions: 3 μM ATP, 500 nM peptide, room temperature 1 hr
Chain of human JAK3 (a.a. 781-1124) catalytic domain (P52333 781-1124): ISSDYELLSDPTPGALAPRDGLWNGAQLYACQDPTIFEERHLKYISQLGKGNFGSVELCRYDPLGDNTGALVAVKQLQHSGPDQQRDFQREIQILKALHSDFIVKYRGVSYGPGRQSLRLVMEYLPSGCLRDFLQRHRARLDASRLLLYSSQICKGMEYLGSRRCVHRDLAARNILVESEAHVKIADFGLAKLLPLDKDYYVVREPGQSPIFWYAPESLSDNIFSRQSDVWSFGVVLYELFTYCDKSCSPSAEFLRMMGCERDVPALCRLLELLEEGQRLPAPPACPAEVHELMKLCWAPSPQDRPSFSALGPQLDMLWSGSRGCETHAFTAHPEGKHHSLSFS
Experimental: (§1) One or more compounds herein were tested for inhibitory activity of JAK targets according to the following in vitro assay described in Park et al., Analytical Biochemistry 1999, 269, 94-104. The catalytic domains of human JAK1 (a.a. 837-1142), JAK2 (a.a. 828-1132) and JAK3 (a.a. 781-1124) with an N-terminal His tag were expressed using baculovirus in insect cells and purified. The catalytic activity of JAK1, JAK2 or JAK3 was assayed by measuring the phosphorylation of a biotinylated peptide. The phosphorylated peptide was detected by homogenous time resolved fluorescence (HTRF). […] The ATP concentration in the reactions was 90 μM for JAK1, 30 μM for JAK2 and 3 μM for JAK3. Reactions were carried out at room temperature for 1 hr and then stopped with 20 μL 45 mM EDTA, 300 nM SA-APC, 6 nM Eu-Py20 in assay buffer (Perkin Elmer, Boston, Mass.). Binding to the Europium labeled antibody took place for 40 minutes and HTRF signal was measured on a Fusion plate reader (Perkin Elmer, Boston, Mass.).

[4] = biological target: human JAK1 (a.a. 837-1142) catalytic domain (Homo sapiens, UniProt P23458); assay: In vitro JAK kinase assay (HTRF), JAK1; conditions: 90 μM ATP, 500 nM peptide, room temperature 1 hr
Experimental: as §1

[5] = biological target: human JAK2 (a.a. 828-1132) catalytic domain (Homo sapiens (Human), UniProt O60674); assay: In vitro JAK kinase assay (HTRF), JAK2
Chain of human JAK2 (a.a. 828-1132) catalytic domain (O60674 828-1132): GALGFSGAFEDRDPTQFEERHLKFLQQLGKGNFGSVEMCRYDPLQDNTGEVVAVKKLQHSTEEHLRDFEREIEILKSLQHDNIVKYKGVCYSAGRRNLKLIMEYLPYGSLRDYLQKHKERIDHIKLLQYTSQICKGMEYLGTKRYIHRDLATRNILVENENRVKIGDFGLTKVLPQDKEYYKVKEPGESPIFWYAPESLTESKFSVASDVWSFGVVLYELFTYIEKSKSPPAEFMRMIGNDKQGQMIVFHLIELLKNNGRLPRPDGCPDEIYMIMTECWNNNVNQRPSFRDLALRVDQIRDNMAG
Experimental: One or more compounds herein were tested for inhibitory activity of JAK targets according to the following in vitro assay described in Park et al., Analytical Biochemistry 1999, 269, 94-104. The catalytic domains of human JAK1 (a.a. 837-1142), JAK2 (a.a. 828-1132) and JAK3 (a.a. 781-1124) with an N-terminal His tag were expressed using baculovirus in insect cells and purified. The catalytic activity of JAK1, JAK2 or JAK3 was assayed by measuring the phosphorylation of a biotinylated peptide. The phosphorylated peptide was detected by homogenous time resolved fluorescence (HTRF). […] Binding to the Europium labeled antibody took place for 40 minutes and HTRF signal was measured on a Fusion plate reader (Perkin Elmer, Boston, Mass.).

[6] = 30 μM ATP, 500 nM peptide, room temperature 1 hr

Compound	IC50 [1] [nM]	IC50 [2] [nM]	IC50 [3] [nM]	IC50 [4] [nM]	IC50 [5, 6] [nM]	IC50 [5] [nM]
Clc1cnc2nc1NCc1cccc(c1)OCCOc1cccc(c1)N2 [Example 7, 6-Chloro-15,18-dioxa-2,4,8,25-tetraazatetracyclo[17.3.1.1(3,7).1(10,14)]pentacosa-1(23),3(25),4,6,10(24),11,13,19,21-nonaene trifluoroacetate]	2050	43	6.4	16	8.3	–
Clc1cnc2nc1NCc1cccc(c1)OCCCc1cccc(c1)N2 [Example 5, 6-Chloro-15-oxa-2,4,8,25-tetraazatetracyclo[17.3.1.1(3,7).1(10,14)]pentacosa-1(23),3(25),4,6,10(24),11,13,19,21-nonaene trifluoroacetate]	706	25	2.4	4.2	–	1.9
Clc1cnc2nc1NCc1cc(ccc1Br)OCCCc1cccc(c1)N2 [Example 14, 11-Bromo-6-chloro-15-oxa-2,4,8,25-tetraazatetracyclo[17.3.1.1(3,7).1(10,14)]pentacosa-1(23),3(25),4,6,10(24),11,13,19,21-nonaene]	8200	300	57	100	91	–
